≈ marks a conversion by molar mass, not a printed value. Where “and” joins values, the source holds several entries; their conditions need not be identical. Identical values can stand only once.
Assays:
[1] = test system: Nycobacterium smegmatis ATCC 607; test: Antibacterial activity (MIC) against acid-fast bacteria; format: cell-based; settings: 37° C., 40 to 42 hours
Procedure: As for acid-fast bacteria, after cultured in glycerol broth medium, there was prepared a bacterial suspension for inoculation containing about 10^6 of the bacteria per 1 ml of the medium. On the other hand, there were prepared some glycerol Czapek agar plating media with adding the test compounds, and thereto the bacterial suspension for inoculation was streaked.

[2] = target: T1, reverse transcriptase derived from Moloney-Murine Leukemia Virus (M-MLV) (Moloney murine leukemia virus, UniProt P03355); test: Inhibiting activity against reverse transcriptase derived from M-MLV; format: biochemical; settings: read-out: Inhibition rate (reverse transcriptase derived from M-MLV); for inhibition at 1 µM: 1 μM in the reaction mixture
T1 construct: reverse transcriptase derived from Moloney-Murine Leukemia Virus; purchased Pharmacia K. K
Procedure: There was found the following point by using reverse transcriptase derived from Moloney-Murine Leukemia Virus (hereinafter referred to as "M-MLV").
The compound of the present invention was dissolved in DMSO to give a 100 mM solution thereof. Then, the solution was diluted with distilled water containing DMSO to give a solution of the test compound having a defined concentration. A mixed ratio of DMSO and distilled water was adjusted so that the concentration of DMSO at this time is 10% by volume and a final concentration of DMSO at the beginning of a reaction is 1% by volume.
The thus prepared solution of the test compound was mixed with a solution containing 50 mM of Tris--HCl buffer (pH 8.3), 8 mM of MgCl2, 30 mM of NaCl, 50 mM of dithiothreitol (made by Wako Pure Chemical Industries Ltd.), 0.2 mM of thymidine-5'-triphosphate (made by Pharmacia K. K.) and 6 U/ml of reverse transciptase derived from M-MLV (made by Pharmacia K. K.), and preincubated at 37° C. for 30 minutes. After there was added thereto 10 μg/ml of polyadenylic acid (made by PL Biochemicals Co., Ltd.), 0.01 U/ml of oligodeoxy thymidylic acid (made by Pharmacia K. K.) and 10 μCi/ml of [methyl-^3 H] thymidine-5'-triphosphate (made by Amersham Japan Co., Ltd., 47 Ci/mmol) to give a reaction mixture, the mixture was further incubated at 37° C. for 30 minutes, followed by cooling with ice to stop the reaction.
The radioactivity incorporated into deoxyribonucleic acids was measured according to the method of Linteril et al (Science 170, 447 to 449 (1967)). A defined volume of the reaction mixture was soaked into DE-81 filter paper (made by Whatman Ltd.), the filter paper was washed with 5% by weight of Na2 HPO4 solution for three times, and with distilled water and ethanol successively, and then dried. Radioactivity contained in the filter paper was measured by liquid scintillation counter to give the each radioactivity of the test solution groups.
On the other hand, the same procedure as above was carried out using DMSO-distilled water without the test compound instead of using the test solution, to give the value of radioactivity of a control group.
Reverse transcriptase derived from M-MLV inhibition rate (%) was calculated by the following equation. [formula]

[3] = target: T2, epidermal growth factor receptor-tyrosine kinase complex (Homo sapiens, UniProt P00533); test: Tyrosine kinase inhibiting activity (A-431 membrane preparation, EGF-stimulated); format: biochemical; settings: 1 μM in the reaction mixture; read-out: Tyrosine kinase inhibition rate
T2 construct: The membrane preparation was employed in the following measurement without solubilization; endogenous in cells; host or cells: A-431 (ATCC CRL1555), membrane preparation, not solubilized
T2 sequence (P00533 25-1210, one chain of several): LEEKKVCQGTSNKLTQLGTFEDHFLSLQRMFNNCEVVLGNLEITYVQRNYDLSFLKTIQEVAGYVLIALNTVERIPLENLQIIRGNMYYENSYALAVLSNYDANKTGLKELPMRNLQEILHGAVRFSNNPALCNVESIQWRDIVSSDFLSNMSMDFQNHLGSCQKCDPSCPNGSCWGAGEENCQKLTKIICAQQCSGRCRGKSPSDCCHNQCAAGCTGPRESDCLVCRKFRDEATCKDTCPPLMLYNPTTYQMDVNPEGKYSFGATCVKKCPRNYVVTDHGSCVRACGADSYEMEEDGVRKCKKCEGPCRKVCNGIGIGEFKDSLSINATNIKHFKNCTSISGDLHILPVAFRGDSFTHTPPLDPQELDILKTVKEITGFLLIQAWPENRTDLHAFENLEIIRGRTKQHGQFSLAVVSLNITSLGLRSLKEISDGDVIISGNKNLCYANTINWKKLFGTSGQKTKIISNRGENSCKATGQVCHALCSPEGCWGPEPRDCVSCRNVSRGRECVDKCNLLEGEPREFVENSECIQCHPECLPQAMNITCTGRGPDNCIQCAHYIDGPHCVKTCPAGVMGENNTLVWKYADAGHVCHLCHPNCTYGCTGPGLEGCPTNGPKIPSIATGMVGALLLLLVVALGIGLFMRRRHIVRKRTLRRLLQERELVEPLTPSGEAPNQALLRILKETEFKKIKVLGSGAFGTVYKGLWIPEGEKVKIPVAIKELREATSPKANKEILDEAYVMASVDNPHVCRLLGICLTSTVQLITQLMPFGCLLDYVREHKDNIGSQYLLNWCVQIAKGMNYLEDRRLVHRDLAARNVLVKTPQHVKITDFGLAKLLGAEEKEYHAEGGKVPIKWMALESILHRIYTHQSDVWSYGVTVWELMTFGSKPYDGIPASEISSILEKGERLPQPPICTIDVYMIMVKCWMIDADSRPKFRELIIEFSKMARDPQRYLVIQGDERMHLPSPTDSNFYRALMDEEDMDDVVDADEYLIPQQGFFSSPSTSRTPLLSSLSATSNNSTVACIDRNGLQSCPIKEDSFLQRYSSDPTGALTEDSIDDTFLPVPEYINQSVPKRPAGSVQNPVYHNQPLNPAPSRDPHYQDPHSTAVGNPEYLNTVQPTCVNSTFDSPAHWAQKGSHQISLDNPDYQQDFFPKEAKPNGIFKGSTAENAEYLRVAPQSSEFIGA
Procedure: Tyrosine kinase inhibiting activity of the compound of the present invention was measured referring to a method for measuring tyrosine kinase activity by G. Carpenter or by S. Cohen et al. [J. Biol. Chem., 254, 4884(1979); J. Biol. Chem., 257, 1528(1982)].
Cell line A-431 derived from human carcinoma (ATCC CRL1555) was cultured at 37° C. under the condition of 5% CO2 in Dulbecco's modified Eagle's medium (made by NISSUE PHARMACEUTICAL CO., LTD.) containing 10% by volume fetal bovine serum, 50 μg/ml of streptomycin, 50 IU/ml of penicillin G and 50 μg/ml of kanamycin. […] The membrane preparation was employed in the following measurement without solubilization.
A test compound dissolved in dimethylsulfoxide (hereinafter referred to as "DMSO") was added to a mixture of 20 mM of N-2-hydroxyethylpiperazine-N'-2-ethanesulfonic acid buffer (pH 7.4), 1 mM of MnCl2, 7.5 μg of bovine serium albumin and the membrane preparation (10 μg as protein). After incubation at 0° C. for 5 minutes, 100 ng of epidermal growth factor (hereinafter referred to as "EGF") was added thereto and the mixture was further incubated at 0° C. for 15 minutes. [γ-^32 P]ATP (3000 Ci/mmol, 0.1 μCi) was added thereto to make final volume of 70 μl. After incubation at 0° C. for 15 minutes, 50 μl of the reaction mixture was soaked into Whatman 3 MM filter paper (made by Whatman Ltd.) and immediately the reaction was stopped by an aqueous solution of 10% by weight trichloroacetic acid containing 10 mM sodium pyrophosphate. The filter paper was sufficiently washed with the same solution and then washed with ethanol, and dried. Radioactivity present in the filter paper was measured by liquid scintillation counter (A). Also, radioactivity was measured in case of the reaction without EGF (B), the reaction without the test compound (C), and the reaction without both EGF and the test compound (D) as a control.
Tyrosine kinase inhibition rate (%) was calculated by the following equation. [formula]

[4] = test system: Bacillus subtilis IFO 3134; test: Antibacterial activity (MIC) against Bacillus subtilis IFO 3134; format: cell-based; settings: IFO3134, 37° C., 18 to 20 hours
Procedure: (§1) The antibacterial activity against Gram-positive bacteria of the compound of the present invention was measured according to a standard method of Nippon Kagaku Ryoho Gakkai [Nippon Kagaku Ryoho Gakkaishi (Journal of the Chemical therapy of Japan), 29, 76(1981)].
(§2) As for gram-positive bacteria, after cultivation in Meuller Hinton broth medium (made by Difco Co., Ltd.), there was prepared a bacterial suspension for inoculation containing about 10^6 of the bacteria per 1 ml of the Meuller Hinton broth medium. On the other hand, the test compound was added to Mueller Hinton agar medium (made by Difco Co., Ltd.) so as to give agar plate medium containing test samples which are twofold serial diluted. Then, the above-mentioned bacterial suspension for inoculation was streaked to each agar medium for about 2 cm with a looped nichrome wire (inner diameter: about 1 mm).
(§3) After that the each agar plate medium was cultured at 37° C. for 18 to 20 hours, the growth of the test bacteria was determined.

[5] = test system: Staphylococcus aureus IFO 12732; test: Antibacterial activity (MIC) against Staphylococcus aureus IFO 12732; format: cell-based; settings: IFO12732, 37° C., 18 to 20 hours
Procedure: as §1, §2, §3

[6] = test system: Micrococcus luteus IFO 13867; test: Antibacterial activity (MIC) against Micrococcus luteus IFO 13867; format: cell-based; settings: IFO13867, 37° C., 18 to 20 hours
Procedure: as §1, §2, §3

5-lipoxygenase = target: T3, 5-lipoxygenase (Cavia porcellus, UniProt A0A286X958); test: 5-Lipoxygenase inhibiting activity (5-HETE formation, cytosol of peritoneal exudate cells); format: biochemical, Hartley guinea pigs; settings: 10 μM in the reaction mixture; read-out: Inhibition rate (5-lipoxygenase)
T3 construct: The cytosol fraction was used as an enzyme solution; from tissue; host or cells: peritoneal exudate cells of casein-injected Hartley guinea pigs, 105,000×g cytosol
T3 sequence (A0A286X958 1-674): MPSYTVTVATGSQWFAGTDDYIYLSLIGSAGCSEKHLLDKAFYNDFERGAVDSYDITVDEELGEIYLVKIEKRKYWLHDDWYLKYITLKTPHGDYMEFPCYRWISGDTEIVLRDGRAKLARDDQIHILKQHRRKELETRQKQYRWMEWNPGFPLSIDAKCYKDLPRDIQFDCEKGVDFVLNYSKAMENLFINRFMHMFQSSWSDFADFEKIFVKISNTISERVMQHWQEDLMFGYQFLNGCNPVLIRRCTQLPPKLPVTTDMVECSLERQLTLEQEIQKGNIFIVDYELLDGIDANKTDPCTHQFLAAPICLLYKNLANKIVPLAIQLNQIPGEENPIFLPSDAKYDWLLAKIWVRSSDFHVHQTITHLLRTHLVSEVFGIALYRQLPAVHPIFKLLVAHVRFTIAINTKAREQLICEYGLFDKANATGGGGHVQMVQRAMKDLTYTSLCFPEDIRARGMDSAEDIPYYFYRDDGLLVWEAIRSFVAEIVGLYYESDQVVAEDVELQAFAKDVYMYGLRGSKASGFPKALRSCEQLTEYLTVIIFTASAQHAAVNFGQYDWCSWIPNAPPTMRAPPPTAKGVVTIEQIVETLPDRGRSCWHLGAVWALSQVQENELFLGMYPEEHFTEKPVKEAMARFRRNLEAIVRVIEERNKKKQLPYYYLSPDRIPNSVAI
Procedure: 5-Lipoxygenase inhibiting activity of the compound of the present invention was measured referring to the method for measuring 5-lipoxygenase activity by K. Ochi et al. [Journal of Biological Chemistry (J. Biol. Chem.), 258, 5754(1983)].
Sterilized 2% solution of casein (pH 7) was injected intraperitoneally into Hartley guinea pigs in a volume of 5 ml/100 g body weight. Fifteen hours later, the guinea pigs were killed and peritoneal exudate cells thereof were collected. After the exudate cells were washed with 17 mM Tris--HCl buffer (pH 7.4) containing 0.74% ammonium to remove contaminating erythrocytes in the exudate cells suspension, the cells were washed with buffer A (130 mM NaCl, 1 mM EDTA, 25 mM sodium phosphate, pH 7.4). The washed cells were suspended in buffer B (50 mM sodium phosphate, 1 mM EDTA, 0.1% gelatin, pH 7.4) at 10^8 cells/ml, sonicated and centrifuged at 10,000×g for 20 minutes under the cold atmosphere. The obtained supernatant was further centrifuged at 105,000×g for 60 minutes under the cold atmosphere. The cytosol fraction was used as an enzyme solution.
The enzyme solution was preincubated with the […] in the presence of 1 mM CaCl2, 1 mM reduced gluthathione (GSH) and 2 mM ATP at 30° C. for 5 minutes in 0.2 ml of a reaction mixture and the mixture was further incubated at 30° C. for 5 minutes by adding 20 μM [1-^14 C] arachidonic acid (0.1 μCi) thereto. The test compounds were dissolved in ethanol to give the reaction mixture containing 2% ethanol as a final concentration. Only ethanol was added to the reaction mixture as a control group.
To the reaction mixture were added 2.5 ml of a mixture of chloroform and methanol (2/1 by volume) and 0.3 ml of 40 mM citric acid to stop the reaction. The mixture was vortexed and an organic solvent layer was evaporated to dryness under nitrogen gas. After dissolving the dried organic layer in a fixed amount of the mixture of chloroform and methanol (2/1 by volume), it was spotted on a silica gel plate (Kiesel gel 60F254, E. Merck) and products were separated using a developer (the organic solvent layer of ethyl acetate/water/2,2,4-trimethylpentane/acetic acid=11/10/5/2 by volume). After the radioactive position of the product was determined by means of a radioautography, an area equivalent to that of 5-hydroxyeicosatetraenoic acid (hereinafter referred to as "5-HETE") was scraped off, and then its radioactivity was measured with a liquid scintillation counter. With regarding the amount of the generated 5-HETE as the 5-lipoxygenase inhibiting activity, the inhibition rate (%) in comparison with the control group was calculated according to the following equation. [formula]

UV absorption spectrum = format: physicochemical; settings: in methanol; for molar extinction coefficient: at the λ max of the same line
Procedure: Each UV absorption spectrum of the compounds of the present invention was measured according to the conventional method, in which methanol was used as a solvent, and thereby molar extinction coefficient thereof was calculated.

Compound | inhibition at 10 µM (5-lipoxygenase) | λ max (UV absorption spectrum) | molar extinction coefficient (UV absorption spectrum) | MIC [1] | inhibition at 1 µM [2] | inhibition at 1 µM [3] | MIC [4] | MIC [5] | MIC [6] | inhibition at 10 µM ([2]; 10 μM in the reaction mixture)
O=C1NC(=S)SC1=Cc1cc(-c2ccccc2)c(O)c(-c2ccccc2)c1 [Compound 1] |  |  |  | 6 µg/mL (≈ 15.4 µM) | 96% | 23% | ≤ 6 µg/mL | 12 µg/mL (≈ 30.8 µM) | ≤ 6 µg/mL | 
N#CC(=Cc1cc(-c2ccccc2)c(O)c(-c2ccccc2)c1)C(N)=O [Compound 15] |  | 271 nm and 348 nm | 2.04 × 10^4 and 2.11 × 10^4 | ≤ 15 µg/mL |  | 100% | 100 µg/mL (≈ 294 µM) | 60 µg/mL (≈ 176 µM) | 60 µg/mL (≈ 176 µM) | 59%
O=C1NN(c2ccccc2)C(=O)C1=Cc1cc(-c2ccccc2)c(O)c(-c2ccccc2)c1 [Compound 19] |  |  |  | ≤ 6 µg/mL | 75% | 74% | 100 µg/mL (≈ 231 µM) | 100 µg/mL (≈ 231 µM) | 50 µg/mL (≈ 116 µM) | 

The next lines start with results.

inhibition at 10 µM (5-lipoxygenase) | λ max (UV absorption spectrum) | molar extinction coefficient (UV absorption spectrum) | Compound | MIC [1] | inhibition at 1 µM [2] | inhibition at 1 µM [3] | MIC [4] | MIC [5] | MIC [6] | inhibition at 10 µM ([2]; 10 μM in the reaction mixture)
85% | 257 nm and 361 nm | 1.87 × 10^4 and 1.80 × 10^4 | O=C1Nc2ccccc2C1=Cc1cc(Cc2ccccc2)c(O)c(Cc2ccccc2)c1 [Compound 4] |  |  | 74% |  |  | ≤ 6 µg/mL | 
28% | 249 nm and 347 nm | 1.51 × 10^4 and 2.40 × 10^4 | N#CC(=Cc1cc(Cc2ccccc2)c(O)c(Cc2ccccc2)c1)C(N)=O [Compound 16] | ≤ 15 µg/mL |  | 100% | ≤ 15 µg/mL | ≤ 15 µg/mL | ≤ 15 µg/mL | 
 | 304 nm | 1.87 × 10^4 | O=C1NCCC1=Cc1cc(Cc2ccccc2)c(O)c(Cc2ccccc2)c1 [Compound 18] |  |  | 87% |  |  |  | 

— patent publication US5089516A, “1-phenyl-3,5-pyrazolidinedione hydroxystyrene compounds which have tyrosine kinase inhibiting activity” (Kanegafuchi Kagaku Kogyo Kabushiki Kaisha, priority 1987, dated 1992)
